Tested on: T1, cholesterol oxidase (ChoX, ChOx)
T1 construct: native extracellular enzyme purified from culture supernatant (ammonium sulfate, Q-Sepharose)
Test: HRP-coupled 4-aminoantipyrine/phenol quinoneimine assay at […] nm, Lineweaver-Burk
Format: biochemical, Escherichia fergusonii
Details: optimum conditions (30 °C, pH 7.5, in the presence of MgSO4 per abstract); KPB; cholesterol 0.1-3.0 mM in Triton X-100; O2 co-substrate

CC(C)CCC[C@@H](C)[C@H]1CC[C@H]2[C@@H]3CC=C4C[C@@H](O)CC[C@]4(C)[C@H]3CC[C@]12C [cholesterol]
Km: 710 µM

Reference: PMC11744973, “Optimized extraction and kinetic study of cholesterol oxidase from a newly isolated Escherichia fergusonii strain from local whey samples: insights through a combined experimental study and artificial neural network modeling” (BMC Microbiology, 2025)
